According to patent US20040072882A1 (priority 2002, published 2004):
“Also recorded” adds a separate entry of the source. Where two headings read alike, the source gives them in different places.

Legend:
[1] = tested on: advanced malignancy, either primary or metastatic; assay: Tumor assessment / tumor markers in patients with advanced malignancy; assay type: in vivo, human
Excerpt: Other criteria included adequate liver, renal and hematopoietic function, i.e., recovery from reversible effects of previous therapies, if any. Subjects included in the study provided their informed consent.
Approximately 52 patients meeting the above-described criteria were enrolled in the study. Of the patients treated, approximately 60% were male and 40% female, ranging in age from 23 to 85 years. A wide range of tumor types were included in the study, including colon, ovarian, prostate, and lung tumors. Most of the enrollees had received multiple rounds of other chemotherapies prior to entering the study.
(§1) H1/H2 blockers were given orally to the subjects 30-60 minutes prior to infusion to prevent any adverse reactions to the CREMOPHOR® in the composition. […] Thus, a dosage of 9 mg/m^2 required about 10-15 minutes of infusing, while a dose of 150 mg/m^2 required 3-4 hours of dosing. The patients were monitored by testing CBC with differential weekly, various laboratory tests every three weeks, and physical exams including neurological assessment every three weeks. Tumor assessments were made every six weeks.

[2] = tested on: microtubules in interphase cells (PBMC's); assay: Microtubule bundle formation in mononuclear cells (PBMC's) isolated from treated patients, immunofluorescence; assay type: in vivo, human
Excerpt: The activity of the drug can be assessed by measuring bundling of microtubules in interphase cells. This is considered the hallmark of activity of microtubule-stabilizing agents such as paclitaxel. The bundle formation can readily be measured by immunofluorescence or Western blotting. In a typical determination, whole blood is collected from patients and mononuclear cells (PBMC's) are isolated for evaluation of bundle formation.
In addition to monitoring toxicity and pharmacokinetics, the pharmacodynamics of treatment was also monitored. The standard criterion is the ability of the drug to effect bundling of microtubules in interphase cells. Whole blood was collected from patients and mononuclear cells (PBMC's) were isolated. To measure bundle formation, the PBMC's were resuspended in 5% FBS/PBS containing 0.75×10^6 cells/mL and used to make cytospin preparations. The cells were then fixed in 100% methanol for 10 minutes at […], air dried and stored at 4° C. prior to immunostaining. For immunostaining, the cells were blocked in 10% Normal Goat Serum in PBS for 20 minutes and incubated with a 1:100 dilution of {tilde over (□)}tubulin monoclonal antibody diluted in 5% Normal Goat Serum in PBS for 1 hour at 37° C. The slides were then rinsed in PBS and incubated with 1:200 Cy3-conjugated goat anti-mouse IgG for 1 hour in the dark before mounting. Cell numbers were quantified using a Zeiss AXIOSCOP microscope and evaluated at levels of 500 cells per slide by individual investigators.

[3] = Pharmacokinetics of epothilone D in patients (plasma levels by LC/MS/MS after intravenous infusion); assay type: in vivo, human
Protocol: as §1
Both the pharmacokinetics and pharmacodynamics of epothilone D were measured in the subjects. Plasma concentration as a function of time was measured in the first- and second cycles at various dose levels in several subjects.
As would be expected, the levels at the end of infusion are high and taper off gradually, and the concentration levels at any particular time are dose-dependent.

[4] = Toxicity monitoring in the patient study; assay type: in vivo, human
Excerpt: In order to ensure that toxic limits are not exceeded, the effects of the administration on the subject are monitored. Possible effects include neurological impairment(s), which may manifest itself as cognitive/perceptual abnormalities, numbness in the limbs, difficulty in walking, dizziness, and the like. […] Other side effects may include nausea and vomiting, fatigue, rash, alopecia, and alteration in vital signs such as orthostatic hypotension.
H1/H2 blockers were given orally to the subjects 30-60 minutes prior to infusion to prevent any adverse reactions to the CREMOPHOR® in the composition. […] The patients were monitored by testing CBC with differential weekly, various laboratory tests every three weeks, and physical exams including neurological assessment every three weeks. Tumor assessments were made every six weeks.

[5] = paclitaxel comparison value; cited from earlier work

C/C1=C/C[C@@H](/C(C)=C/c2csc(C)n2)OC(=O)C[C@H](O)C(C)(C)C(=O)[C@H](C)[C@@H](O)[C@@H](C)CCC1 [epothilone D, Desoxyepothilone B]
disease status in patients receiving multiple cycles (at least four months) ([1]; human, in vivo): suggestive of stable disease | tumor markers ([1]; ovarian, pancreatic, testicular, breast, and biliary diseases): Tumor marker reductions were observed | percentage of PBMCs with microtubule bundles ([2]; dosage 18 mg/m^2): 12% | percentage of PBMCs with microtubule bundles ([2]; dosage 120 mg/m^2): 55% | bundle formation at low dosage ([2]; dosage as low as 18 mg/m^2): Substantial amounts of bundle formation | dependence of the area under the curve (AUC) on dosage ([3]; dose range about 9 mg/m^2 to about 150 mg/m^2, first and second cycles): linear correlation | half-life ([3]; human, in vivo, intravenous infusion, summary over study, read-out: half-life, mean value): 8 to 10 h | clearance ([3]; human, in vivo, patients treated at 100 mg/m^2, averaged, read-out: Drug clearance (converted)): 315 mL/min | half-life ([3]; human, in vivo, patients treated at 100 mg/m^2, averaged, read-out: elimination half-life (converted)): 8.8 ± 2.4 h | Vd ([3]; human, in vivo, patients treated at 100 mg/m^2, averaged, read-out: volume of distribution (Vz)): 232 ± 82 L | difference in pharmacokinetics between cycles ([3]; two cycles, three subjects at 60 mg/m^2): no discernable difference | time of toxicity ([4]; dose level between 9 mg and about 60 mg per m^2): start at day five and continue to day 15 | severity of toxicities ([4]; dose-dependent toxicities): generally of Grade-2 in severity | onset of toxicity ([4]; higher dosages such as 90 mg/m^2 and […]^2): as soon as the day after infusion is terminated | myelosuppression ([4]; human, in vivo): generally not been seen; also recorded: No clear evidence of myelosuppression was observed

CC(=O)O[C@H]1C(=O)[C@@]2(C)[C@H]([C@H](OC(=O)c3ccccc3)[C@]3(O)C[C@H](OC(=O)[C@H](O)[C@@H](NC(=O)c4ccccc4)c4ccccc4)C(C)=C1C3(C)C)[C@]1(OC(C)=O)CO[C@@H]1C[C@@H]2O [paclitaxel]
volume of distribution (Vz) [5]: 140±70 L/m^2
